Test results taken from PubChem BioAssay AID1963426 (Molecular Pharmacology Branch, DTP, NCI, 2024).
Several values for one entry are separate records, joined by “and”; a condition that tells them apart may be missing. Identical values can stand only once.

Tested on: 186277-243-T-J2-PDC complex spheroid growth, % test/control
Test: Anticancer human tumor 186277-243-T-J2-PDC patient-derived colon adenocarcinoma cell line growth inhibition [Asc]
Settings: for viability, T/C: stronger effect = lower value
Method in brief: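 Complex spheroids combining tumor cells with HUVEC endothelial cells and human MSCs, at 37 degrees C, 5% CO2; agents tested alone or combined, half-log dilutions from at or near clinical Cmax, or 10 microM if Cmax unknown.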

[1] = curve of first compound, second compound 0.1 µM
[2] = curve of first compound, second compound 0.316 µM
[3] = curve of first compound, second compound 1 µM
[4] = curve of first compound, second compound 3.16 µM
[5] = curve of first compound, second compound 10 µM
[6] = second compound 0.1 µM, first compound 0.00949 µM
[7] = second compound 0.1 µM, first compound 0.03 µM
[8] = second compound 0.1 µM, first compound 0.0949 µM
[9] = second compound 0.1 µM, first compound 0.3 µM
[10] = second compound 0.316 µM, first compound 0.00949 µM
[11] = second compound 0.316 µM, first compound 0.03 µM
[12] = second compound 0.316 µM, first compound 0.0949 µM
[13] = second compound 0.316 µM, first compound 0.3 µM
[14] = second compound 1 µM, first compound 0.00949 µM
[15] = second compound 1 µM, first compound 0.03 µM
[16] = second compound 1 µM, first compound 0.0949 µM
[17] = second compound 1 µM, first compound 0.3 µM
[18] = second compound 3.16 µM, first compound 0.00949 µM
[19] = second compound 3.16 µM, first compound 0.03 µM
[20] = second compound 3.16 µM, first compound 0.0949 µM
[21] = second compound 3.16 µM, first compound 0.3 µM
[22] = second compound 10 µM, first compound 0.00949 µM
[23] = second compound 10 µM, first compound 0.03 µM
[24] = second compound 10 µM, first compound 0.0949 µM
[25] = second compound 10 µM, first compound 0.3 µM
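Note: spheroids exposed to agents for 7 days.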
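Throughout, for viability, T/C: 100% = DMSO vehicle control wells.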

Row | Compound | IC50 [1] [nM] | IC50 [2] [nM] | IC50 [3] [nM] | IC50 [4] [nM] | IC50 [5] [nM] | viability, T/C [6] [%] | viability, T/C [7] [%] | viability, T/C [8] [%] | viability, T/C [9] [%] | viability, T/C [10] [%] | viability, T/C [11] [%] | viability, T/C [12] [%] | viability, T/C [13] [%] | viability, T/C [14] [%] | viability, T/C [15] [%] | viability, T/C [16] [%] | viability, T/C [17] [%] | viability, T/C [18] [%] | viability, T/C [19] [%] | viability, T/C [20] [%] | other results
1 | NC(=O)C(=Cn1cnc(-c2cc(C(F)(F)F)cc(C(F)(F)F)c2)n1)c1cncnc1 + Cc1c(S(C)(=O)=O)c(-c2cc(F)cc(N3CCN(c4ccc(NS(=O)(=O)c5ccc(NC(CCN6CCC(C(=O)OCCCP(=O)(O)O)CC6)CSc6ccccc6)c(S(=O)(=O)C(F)(F)F)c5)cc4)CC3)c2)c(-c2ccc(Cl)cc2)n1C(C)C | 108 | 84.2 | 65.7 | 56.8 | 55.4 | 113 | 90.8 | 56.2 | 6.16 | 89.5 | 94.9 | 44.8 | 4.07 | 101 | 98.2 | 27.4 | 1.75 | 101 | 95.8 | 13.2 | viability, T/C (second compound 0.1 µM, first compound 0.000949 µM): 109%; viability, T/C (second compound 0.1 µM, first compound 0.003 µM): 99.3%; viability, T/C (second compound 0.316 µM, first compound 0.000949 µM): 96.3%; viability, T/C (second compound 0.316 µM, first compound 0.003 µM): 99%; viability, T/C (second compound 1 µM, first compound 0.000949 µM): 96.8%; viability, T/C (second compound 1 µM, first compound 0.003 µM): 101%; viability, T/C (second compound 3.16 µM, first compound 0.000949 µM): 110%; viability, T/C (second compound 3.16 µM, first compound 0.003 µM): 99.4%; viability, T/C [21]: 0.68%; viability, T/C (second compound 10 µM, first compound 0.000949 µM): 92%; viability, T/C (second compound 10 µM, first compound 0.003 µM): 92.4%; viability, T/C [22]: 92.5%; viability, T/C [23]: 91.7%; viability, T/C [24]: 13.4%; viability, T/C [25]: 0.55%
2 | O=C(c1ccc(F)c(F)c1Nc1ccc(I)cc1F)N1CC(O)([C@@H]2CCCCN2)C1 |  |  |  |  |  |  |  |  |  |  |  |  |  |  |  |  |  |  |  |  | viability, T/C (compound 0.00316 µM): 87.9% and 90.5% and 94.8%; viability, T/C (compound 0.01 µM): 88.2% and 90.8% and 78.7%; viability, T/C (compound 0.0316 µM): 97.7% and 88.7% and 90.1%; viability, T/C (compound 0.1 µM): 59.7% and 58.8% and 96.4%; viability, T/C (compound 0.316 µM): 14.8% and 15.4% and 23.9%; viability, T/C (compound 1 µM): 9.12% and 8.82% and 13.1%; IC50 (curve of compound): 127 nM and 201 nM
3 | Cc1nc(N2CCC3(CC2)COC(C)C3N)c(CO)nc1Sc1ccnc(N)c1Cl (configuration not stated) + Cc1c(S(C)(=O)=O)c(-c2cc(F)cc(N3CCN(c4ccc(NS(=O)(=O)c5ccc(NC(CCN6CCC(C(=O)OCCCP(=O)(O)O)CC6)CSc6ccccc6)c(S(=O)(=O)C(F)(F)F)c5)cc4)CC3)c2)c(-c2ccc(Cl)cc2)n1C(C)C | > 3000 | > 3000 | > 3000 | > 3000 | > 3000 | 112 | 99 | 106 | 116 | 116 | 94.9 | 112 | 117 | 116 | 97.7 | 114 | 121 | 112 | 104 | 111 | viability, T/C (second compound 0.1 µM, first compound 0.949 µM): 98.1%; viability, T/C (second compound 0.1 µM, first compound 3 µM): 96.1%; viability, T/C (second compound 0.316 µM, first compound 0.949 µM): 107%; viability, T/C (second compound 0.316 µM, first compound 3 µM): 110%; viability, T/C (second compound 1 µM, first compound 0.949 µM): 126%; viability, T/C (second compound 1 µM, first compound 3 µM): 107%; viability, T/C [21]: 115%; viability, T/C (second compound 3.16 µM, first compound 0.949 µM): 111%; viability, T/C (second compound 3.16 µM, first compound 3 µM): 121%; viability, T/C [22]: 97.6%; viability, T/C [23]: 96.3%; viability, T/C [24]: 115%; viability, T/C [25]: 104%; viability, T/C (second compound 10 µM, first compound 0.949 µM): 100%; viability, T/C (second compound 10 µM, first compound 3 µM): 111%
